# Results taken from article PMC3417054 (Cell host & microbe, 2010).
# “Also recorded” adds a separate entry of the source.
# How the values were obtained:
# human neutrophils [1] = target: T1, human neutrophils (Homo sapiens, UniProt P25090); experiment: Neutrophil chemotaxis; assay type: cell-based; conditions: 3-µm trans-well filter, fluorescence-labeled neutrophils
# T1 sequence (P25090 1-351): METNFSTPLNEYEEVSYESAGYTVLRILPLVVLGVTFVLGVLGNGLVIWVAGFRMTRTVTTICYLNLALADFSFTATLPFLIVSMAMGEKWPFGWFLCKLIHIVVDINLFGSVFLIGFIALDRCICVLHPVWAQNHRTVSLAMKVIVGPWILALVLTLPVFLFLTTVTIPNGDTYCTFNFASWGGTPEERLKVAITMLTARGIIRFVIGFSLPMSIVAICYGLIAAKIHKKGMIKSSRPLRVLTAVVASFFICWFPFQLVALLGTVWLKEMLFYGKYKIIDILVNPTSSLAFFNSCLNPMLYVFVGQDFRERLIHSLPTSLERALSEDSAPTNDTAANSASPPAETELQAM
# human neutrophils [2] = target: T1, human neutrophils; experiment: Ca2+ flux in human neutrophils; assay type: cell-based; conditions: 37°C; for pEC50, calcium ion flux: human neutrophils, Fluo-3-AM, flow cytometry, means +/- SD of at least three independent experiments, nonlinear regression, 11-18 points
# [3] = target: T2, FPR2/ALX-transfected HL60 (Homo sapiens, UniProt P25090); experiment: Ca2+ flux in FPR2/ALX-transfected HL60 cells; assay type: cell-based
# T2 sequence (P25090 1-351): T1 sequence (P25090 1-351)
# mouse neutrophils = experiment: Ca2+ flux in mouse neutrophils; assay type: cell-based; conditions: calcium flux
# [4] = system: peritoneal granulocyte infiltration, S. aureus USA300; experiment: Mouse peritonitis model, S. aureus USA300; assay type: in vivo; conditions: WRW4 prior to infection, two-hours infection period
# human FPR2/ALX = conditions: ref Karlsson et al., 2006; Onnheim et al., 2008; cited from earlier work
# [5] = system: mouse FPR paralog (Fpr-rs2); conditions: ref Karlsson et al., 2006; Onnheim et al., 2008; cited from earlier work
# FPR1-transfected HL60 = experiment: Ca2+ flux in FPR1-transfected HL60 cells; assay type: cell-based, human; conditions: 62.5-500 nM formylated PSMs, 2 µM non-formylated PSMs; fMLF 20 nM
# [6] = system: mice, cows, pigs, dogs, and cats; conditions: ref Styrt, 1989; cited from earlier work
compound,measurement,setting,value
"MDFTGVITSIIDLIKTCIQAFG [PSM-mec, formylated]",chemotaxis of human neutrophils,human neutrophils [1],induce chemotaxis
pertussis toxin,effect of pertussis toxin on PSM-induced calcium flux,"human neutrophils [2]; PTX 1 µg/ml, three hours, 5% CO2",sensitive; also recorded: blocked
LESIFRSLLFRVM-NH2 [MMK1],calcium flux activation of FPR2/ALX-transfected HL60,"[3]; 62.5 nM (formylated PSMα3), 125 nM (formylated PSMα2), 250 nM (formylated δ-toxin, PSM-mec), 500 nM (formylated PSMsα1, α4, β1, β2), 2 µM (non-formylated PSMs), MMK1 10 nM",responded
"CSCC[C@H](N)C(=O)N[C@@H](CCC(=O)O)C(=O)N[C@@H](Cc1ccccc1)C(=O)N[C@H](C(=O)N[C@@H](C)C(=O)N[C@@H](CCCCN)C(=O)N[C@@H](CC(C)C)C(=O)N[C@@H](Cc1ccccc1)C(=O)N[C@@H](CCCCN)C(=O)N[C@@H](Cc1ccccc1)C(=O)N[C@@H](Cc1ccccc1)C(=O)N[C@@H](CCCCN)C(=O)N[C@@H](CC(=O)O)C(=O)N[C@@H](CC(C)C)C(=O)N[C@@H](CC(C)C)C(=O)NCC(=O)N[C@@H](CCCCN)C(=O)N[C@@H](Cc1ccccc1)C(=O)N[C@@H](CC(C)C)C(=O)NCC(=O)N[C@@H](CC(N)=O)C(=O)N[C@@H](CC(N)=O)C(=O)O)C(C)C [PSMα3, non-formylated]",EC50,[3],257 nM
same,"pEC50, calcium ion flux",human neutrophils [2],5.19 ± 0.24
WRWWWW-NH2 [WRW4],effect of WRW4 on mouse neutrophil stimulation by fMLF,mouse neutrophils; fMLF 500 nM,not affected
same,effect of WRW4 on mouse neutrophil stimulation by MMK1 and PSMs,"mouse neutrophils; formylated PSMα3 250 nM, PSMα2 12.5 nM, δ-toxin 50 nM, MMK1 500 nM",potent antagonistic effect; also recorded: blocks
same,effect on numbers of live bacteria,[4],no impact
same,inhibition of human FPR2/ALX,human FPR2/ALX,an inhibitor of human FPR2/ALX
same,inhibition of mouse FPR paralog Fpr-rs2,[5],inhibitor
fMLF,calcium flux activation of FPR1-transfected HL60,FPR1-transfected HL60,responded
same,response to fMLF,[6],hardly respond
"CC[C@H](C)[C@H](NC(=O)[C@H](Cc1c[nH]c2ccccc12)NC(=O)[C@H](CCCCN)NC(=O)[C@@H](NC(=O)[C@H](CC(C)C)NC(=O)[C@H](CC(=O)O)NC(=O)[C@H](CO)NC(=O)[C@@H](NC(=O)[C@@H](NC(=O)[C@H](CO)NC(=O)[C@@H](NC(=O)[C@@H](NC(=O)[C@H](CC(=O)O)NC(=O)[C@H](CCC(N)=O)NC(=O)[C@H](C)NC(=O)[C@@H](N)CCSC)[C@@H](C)CC)[C@@H](C)CC)[C@@H](C)O)[C@@H](C)CC)C(C)C)C(=O)N[C@H](C(=O)N[C@@H](CC(=O)O)C(=O)N[C@H](C(=O)N[C@H](C(=O)N[C@@H](CC(N)=O)C(=O)N[C@@H](CCCCN)C(=O)N[C@@H](Cc1ccccc1)C(=O)N[C@H](C(=O)N[C@@H](CCCCN)C(=O)N[C@@H](CCCCN)C(=O)O)[C@@H](C)O)C(C)C)[C@@H](C)O)[C@@H](C)CC [δ-Toxin, non-formylated]",EC50,[3],479 nM
same,"pEC50, calcium ion flux",human neutrophils [2],5.20 ± 0.14
